The values that follow come from patent US12194081B2, “ARGINASE1 polypeptides” (IO BIOTECH APS, priority 2018, dated 2025).

Common to all, as to format: cell-based, human
Experiment [1] concerns CD4+ and CD8+ T cells in PBMCs. As to the kind of experiment: Intracellular staining for IFNγ and TNFα in CD4+ and CD8+ T cells. As to the method:
Intracellular staining of cell cultures was performed after PBMCs were stimulated with arginase-derived peptides for 5 hours in the presence of BD GolgiPlug™ (added after the first hour of peptide stimulation). Stimulated cells were stained with fluorescently labeled antibodies for surface markers (CD3, CD4, CD8) and thereafter permeabilized by using Fixation/Permeabilization and Permeabilization Buffer (eBioscience, cat. 00-5123-43), according to manufacturer's instructions. Permeabilized cells were then stained with fluorochrome-labeled antibodies for IFNγ and TNFα. Flow cytometry analysis was performed on a FACSCanto™ II (BD Biosciences). Antibodies used: IFNγ-APC (cat. 341117), TNFα-455 BV421 (cat. 562783), CD4-FITC (cat. 347413), CD8-PerCP (cat. 345774), CD3-APC-H7 (cat. 560275) (all from BD Biosciences), dead cells stain-FVS510 (564406, BD Biosciences) according to manufacturer's instructions.

The test system of experiment [2] is PBMCs from cancer patients and healthy donors. The experiment can be described thus: in vitro IFNγ ELISPOT of PBMCs after 7 days with peptide and IL-2. As to the method: PBMCs from healthy donors were isolated using density gradient separation over LymphoprepTM (STEMCELL Technologies) and cryopreserved at -150° C. in FBS supplemented with 10% DMSO. PBMCs from cancer patients were isolated from blood sample a minimum of four weeks after the termination of any anti-cancer therapy. The protocol was approved by the Scientific Ethics Committee for The Capital Region of Denmark and conducted in accordance with the provisions of the Declaration of Helsinki. Written informed consent from the patients was obtained before study entry. […] The sequences of the peptides used in these experiments are shown in full below in alignment with each other, and are also set out in the section entitled “Sequences”). Peptides are described by SEQ ID NO, by name, or by reference to the start and end positions of each peptide sequence within the full length sequence of Arginase 1. Each may be used interchangeably. For example, the peptide of SEQ ID NO: 1 may alternatively be referred to by the name ArgLong2, or may alternatively be referred to as […]-206 (given a start position of 169 and end position of 206). The intended reference in each case will be clear from the context. For in vitro ELISPOT, PBMCs from cancer patients and healthy donors were pulsed with 20 μM of Arginase 1-derived peptides and 120 U/ml IL-2 in 24-well plates for 7 days before being used in an ELISPOT assay. The cells were placed in 96-well nitrocellulose ELISPOT plates (MultiScreen MAIP […]; Millipore) pre-coated with IFNγ capture antibody (Mabtech). Arginase peptides added to a final concentration of 5 μM and plates incubated at 37° C. for 14-16 hours. After the incubation the cells were washed off and secondary biotinylated Ab (Mabtech, cat. 3420-6-1000) was added for 2 hours at room temperature. Unbound secondary antibody was washed off and streptavidin conjugated alkaline phosphatase (AP) (Mabtech, cat. 3310-10) was added for 1 hour at room temperature. Unbound conjugated enzyme was washed off and the assay was developed by adding BCIP/NBT substrate (Mabtech, cat. 3650-10). Developed ELISPOT plates were analyzed on CTL ImmunoSpot S6 Ultimate-V analyzer using Immunospot software v5.1. Responses were reported as the difference between average numbers of spots in wells stimulated with Arginase 1 and wells without added peptide.

Experiment [3] deals with PBMCs from healthy donors and cancer patients. The experiment can be described thus: ex vivo IFNγ ELISPOT of PBMCs without prior peptide stimulation. The conditions noted are these: 4 healthy donors and 2 cancer patients; FIG. 4A. As to the method:
For in vitro ELISPOT, PBMCs from cancer patients and healthy donors were pulsed with 20 μM of Arginase 1-derived peptides and 120 U/ml IL-2 in 24-well plates for 7 days before being used in an ELISPOT assay. The cells were placed in 96-well nitrocellulose ELISPOT plates (MultiScreen MAIP N45; Millipore) pre-coated with IFNγ capture antibody (Mabtech). Arginase peptides added to a final concentration of 5 μM and plates incubated at 37° C. for 14-16 hours. After the incubation the cells were washed off and secondary biotinylated Ab (Mabtech, cat. 3420-6-1000) was added for 2 hours at room temperature. Unbound secondary antibody was washed off and streptavidin conjugated alkaline phosphatase (AP) (Mabtech, cat. 3310-10) was added for 1 hour at room temperature. Unbound conjugated enzyme was washed off and the assay was developed by adding BCIP/NBT substrate (Mabtech, cat. 3650-10). Developed ELISPOT plates were analyzed on CTL ImmunoSpot S6 Ultimate-V analyzer using Immunospot software v5.1. Responses were reported as the difference between average numbers of spots in wells stimulated with Arginase 1 and wells without added peptide.
PBMCs from 4 healthy donors and 2 cancer patients (1 breast cancer and 1 malignant melanoma) that had shown strong responses in in vitro ELISPOT were directly tested for responses to ArgLong2 peptide in ex vivo IFNγ ELISPOT.

“ISAKDIVYIGLRDVDPGEHYILKTLGIKYFSMTEVDRL (Peptide fragment of human Arginase 1 (ArgLong2)) [38-mer, positions 169-206 of full length human Arginase 1]”: the “ex vivo CD4+ responses, intracellular staining” value in experiment [1] (PBMCs from two cancer patients (MM27, BC30) without prior peptide stimulation, FIG. 3B left) was “ex vivo CD4+ responses in PBMCs from both cancer patients”. The “ex vivo CD8+ responses, intracellular staining” value in experiment [1] (PBMCs from two cancer patients (MM27, BC30) without prior peptide stimulation, FIG. 3B right) is recorded as “ex vivo CD8+ responses in the breast cancer patient PBMCs”. The “CD4+ T cell responses, in vitro intracellular staining” value in experiment [1] (two healthy donors and one breast cancer patient, one week after stimulation with ArgLong2 and low dose IL-2, FIG. 3A left) was “detected in one healthy donor and in the breast cancer patient PBMCs”. Also, the “CD8+ T cell responses, in vitro intracellular staining” value in experiment [1] (two healthy donors and one breast cancer patient, one week after stimulation with ArgLong2 and low dose IL-2, other healthy donor showed only CD8+ response, FIG. 3A right) is “detected in one healthy donor and in the breast cancer patient PBMCs”. The “responses in IFNγ ELISPOT (in words)” value in experiment [2] (PBMCs from 6 healthy donors, peptide and low dose IL-2 for 1 week, FIG. 1) was “superior at stimulating T cell responses”. For the same sequence, in experiment [2] (TNTC in six healthy donors and 2 cancer patients, 2.2-5×10^5 PBMCs/well, FIG. 2), the “peptide specific spots in IFNγ ELISPOT where too numerous to count (TNTC)” value is listed as more than 500 spots. In experiment [2] (out of 6 healthy donors, PBMCs stimulated with peptide and low dose IL-2 for 1 week, FIG. 1), the “donors with high responses in IFNγ ELISPOT” value was 4 donors. The “cancer patients showing responses in IFNγ ELISPOT” value in experiment [2] (out of 16 cancer patients (8 melanoma, 6 multiple myeloma, 1 breast cancer, 1 renal cell carcinoma), strong responses counted for ArgLong2, FIG. 2) was found to be 8 cancer patients. Besides, in experiment [2] (out of 19 healthy donors, strong responses counted for ArgLong2, FIG. 2), the “healthy donors showing responses in IFNγ ELISPOT” value was determined as 14 healthy donors. For the same sequence, the “spontaneous responses in ex vivo IFNγ ELISPOT” value in experiment [3] is “significant spontaneous responses in all 6 donors”.
